Tests used:
blood TNFα = test: Effect on blood TNF-α concentration elevation by LPS stimulation; format: in vivo; details: female BALB/c mice; 3 mg/kg intravenously 1 h before LPS 5 mg/kg i.p.; serum 1 h after LPS; vs control group
Experimental: Various kinds of cytokines are produced in vivo accompanying inflammatory response and abnormal immunity or the like. Therefore, the action of test compound with respect to blood TNFα concentration rise was investigated using laboratory animals.
Female BALB/c mice (6 weeks old) were purchased, and, after preliminary rearing for about 1 week, the mice were divided into groups of four animals. The test compound was dissolved in 10% captisol aqueous solution and was intravenously administered to the test group at a dose of 3 mg/kg. Solvent was administered to control group in the same way. LPS (5 mg/kg) was administered intraperitoneally to the test group and the control group one hour after the administration of the test compound or solvent, and blood was sampled one hour later. The serum was separated from the obtained blood, and the TNFα[…]concentration in the serum was measured using an assay kit made by R&D Systems Inc. The inhibition rates of the test group with respect to the control group are shown in Table 3.

[1] = system: liver injury by Galactosamine/LPS stimulation; test: Action on liver injury by Galactosamine/LPS stimulation (blood plasma ALT); format: in vivo; details: BALB/c mice; for ALT amount in the blood plasma: 8 hr, mean ± standard error
Experimental: The action on liver injury by Galactosamine/LPS stimulation was evaluated by elevation of blood alanine transaminase (ALT) amount as an index. Galactosamine (700 mg/kg) and LPS (5 μg/kg) were administered intraperitoneally to BALB/c mice (female, 7 weeks old, Japan Charles River). After 8 hr, the blood was collected in the presence of heparin. The obtained blood was centrifuged (4° C., 10000×rpm, 10 min), and the blood plasma was collected, and the ALT amount in the blood plasma was measured by 7180 type Hitachi automated analytical apparatus (Hitachi High-Technologies Corporation). Compound 6 was dissolved in 10% captisol solution (0.3, 1, 3 mg/kg), and the solution was administered intravenously to the mice in the tail vein 1 hr before Galactosamine/LPS administration.

CCOC(=O)C1=CC2(CC[C@H]1S(=O)(=O)[C@H]1CCc3cccc(Cl)c31)O[C@H](CO)[C@@H](CO)O2 [Compound 6, Ethyl (2R,3R,8R)-8-(((1S)-7-chloro-2,3-dihydro-1H-inden-1-yl)sulfonyl)-2,3-bis(hydroxymethyl)-1,4-dioxaspiro[4.5]dec-6-ene-7-carboxylate]
Blood TNFα inhibition rate (% inhibition) (blood TNFα): 93.1 % inhibition | ALT amount in the blood plasma ([1]; 0.3 mg/kg i.v. 1 hr before Galactosamine/LPS): 570 ± 94 IU/L | ALT amount in the blood plasma ([1]; 1 mg/kg i.v. 1 hr before Galactosamine/LPS): 361 ± 60 IU/L | ALT amount in the blood plasma ([1]; 3 mg/kg i.v. 1 hr before Galactosamine/LPS): 104 ± 10 IU/L | Effect on the increase in the ALT amount in the blood plasma due to Galactosamine/LPS stimulation (in words) ([1]; 0.3, 1, 3 mg/kg i.v.): dose-dependently and significantly inhibited the increase in the ALT amount

From patent US9828357B2, “Cyclic compounds” (Takeda Pharmaceutical Company Limited, priority 2015, dated 2017)
